# Data published in patent publication US20040037843A1, “Inducing cellular immune responses to prostate cancer antigens using peptide and nucleic acid compositions” (priority 2003, published 2004).
# Like-named read-outs stand apart in the source and are kept apart here.
# Key:
# HLA-A*0203 = HLA-A*0203 (Homo sapiens, UniProt P04439, A173T/D140Y/D185E/D98H/E277Q/G131W/G231S/I119V/I121R/I166T/I218V/L180W/L300P/L318F/N151K/N90K/P208A/P217A/Q86G/Q94H/R138H/R169H/T345S); assay: HLA class I binding assay, purified HLA, inhibition of 125I-labelled probe peptide
# HLA-A*6802 = HLA-A*6802 (Homo sapiens, UniProt P04439, A269V/D140Y/D185E/E176V/E277Q/E87N/F33Y/G231S/I121R/I166T/I218V/L180W/L300P/L318F/N151K/P208A/P217A/Q86R/R138H/R169H/S129P/T345S/V36M); assay: as above
# HLA-A*0206 = HLA-A*0206 (Homo sapiens, UniProt P04439, D140Y/D185E/D98H/E176V/E277Q/F33Y/G131W/G231S/I119V/I121R/I166T/I218V/L300P/L318F/N151K/N90K/P208A/P217A/Q86G/Q94H/R138H/R169H/T345S); assay: as above
# HLA-A*0201 = HLA-A*0201 (Homo sapiens, UniProt P04439, D140Y/D185E/D98H/E176V/E277Q/G131W/G231S/I119V/I121R/I166T/I218V/L300P/L318F/N151K/N90K/P208A/P217A/Q86G/Q94H/R138H/R169H/T345S); assay: as above; settings: A*[…], A2 supermotif cross-reactive binding data
# [1] = test system: .221A2.1 peptide-loaded target cells and cells expressing endogenous antigen; assay: Primary in vitro CTL induction with peptide-pulsed DC, CTL lytic activity by 51Cr release; format: cell-based, human; settings: immunogenicity, positive/tested; for A2 peptide: CTL recognition of the peptide; for A2 native: CTL recognition of native (wild-type) target
# Description: Testing was performed using the following methodology:
# Cells that express an antigen of interest, or transfectants comprising the gene encoding the antigen of interest, can be used as target cells to test the ability of peptide-specific CTLs to recognize endogenous antigen.
# The monocytes are purified by plating 10×10^6 PBMC/well in a 6-well plate. After 2 hours at 37° C., the non-adherent cells are removed by gently shaking the plates and aspirating the supernatants. The wells are washed a total of three times with 3 ml RPMI to remove most of the non-adherent and loosely adherent cells. Three ml of complete medium containing 50 ng/ml of GM-CSF and 1,000 U/ml of IL-4 are then added to each well. TNFα is added to the DCs on day 6 at 75 ng/ml and the cells are used for CTL induction cultures on day 7.
# Induction of CTL with DC and Peptide: CD8+ T-cells are isolated by positive selection with Dynal imnmunomagnetic beads (Dynabeads® M-450) and the detacha-bead® reagent. Typically about 200-250×10^6 PBMC are processed to obtain 24×10^6 CD8^+T-cells (enough for a 48-well plate culture). Briefly, the PBMCs are thawed in RPMI with 30 μg/ml DNAse, washed once with PBS containing 1% human AB serum and resuspended in PBS/1% AB serum at a concentration of 20×10^6 cells/ml. The magnetic beads are washed 3 times with PBS/AB serum, added to the cells (140 μl beads/20×10^6 cells) and incubated for 1 hour at 4° C. with continuous mixing. The beads and cells are washed 4× with PBS/AB serum to remove the nonadherent cells and resuspended at 100×10^6 cells/ml (based on the original cell number) in PBS/AB serum containing 100 μl/ml detacha-bead® reagent and 30 μg/ml DNAse. The mixture is incubated for 1 hour at room temperature with continuous mixing. The beads are washed again with PBS/AB/DNAse to collect the CD8+ T-cells. The DC are collected and centrifuged at 1300 rpm for 5-7 minutes, washed once with PBS with 1% BSA, counted and pulsed with 40 μg/ml of peptide at a cell concentration of 1-2×10^6/ml in the presence of 3 μg/ml β2-microglobulin for 4 hours at 20° C. The DC are then irradiated (4,200 rads), washed 1 time with medium and counted again.
# Setting up induction cultures: 0.25 ml cytokine-generated DC (@1×10^5 cells/ml) are co-cultured with 0.25 ml of CD8+ T-cells (@2×10^6 cell/ml) in each well of a 48-well plate in the presence of 10 ng/ml of IL-7. Recombinant human IL10 is added the next day at a final concentration of 10 ng/ml and rhuman IL2 is added 48 hours later at 10 IU/mL.
# Restimulation of the induction cultures with peptide-pulsed adherent cells: Seven and fourteen days after the primary induction the cells are restimulated with peptide-pulsed adherent cells. The PBMCS are thawed and washed twice with RPMI and DNAse. The cells are resuspended at 5×10^6 cells/ml and irradiated at ˜4200 rads. The PBMCs are plated at 2×10^6 in 0.5 ml complete medium per well and incubated for 2 hours at 37° C. The plates are washed twice with RPMI by tapping the plate gently to remove the nonadherent cells and the adherent cells pulsed with 10 μg/ml of peptide in the presence of 3 μg/ml β2 microglobulin in 0.25 ml RPMI/5% AB per well for 2 hours at 37° C. Peptide solution from each well is aspirated and the wells are washed once with RPMI. Most of the media is aspirated from the induction cultures (CD8+ cells) and brought to 0.5 ml with fresh media. The cells are then transferred to the wells containing the peptide-pulsed adherent cells. Twenty four hours later rhuman IL10 is added at a final concentration of 10 ng/ml and rhuman IL2 is added the next day and again 2-3 days later at 50 IU/ml (Tsai et al., Critical Reviews in Immunology 18(1-2):65-75, 1998). Seven days later the cultures are assayed for CTL activity in a ^51Cr release assay. In some experiments the cultures are assayed for peptide-specific recognition in the in situ IFNγ ELISA at the time of the second restimulation followed by assay of endogenous recognition 7 days later. […]
# [2] = A*[…], A2 supermotif cross-reactive binding data
# [3] = A2 supermotif cross-reactive binding data, read-out: A*6802 nM
Structure (SMILES),IC50 (HLA-A*0203; [2]) [nM],A2 peptide [1],A2 native [1],other results
CSCC[C@H](NC(=O)[C@H](C)NC(=O)[C@H](CO)NC(=O)[C@H](CCSC)NC(=O)[C@H](CC(C)C)NC(=O)[C@@H](N)[C@@H](C)O)C(=O)N[C@H](C(=O)N[C@@H](CC(N)=O)C(=O)N[C@@H](CC(C)C)C(=O)N[C@@H](C)C(=O)O)[C@@H](C)O [Peptide 20.0312],,,,IC50 (HLA-A*0203): 37 nM; IC50 (HLA-A*6802): 6670 nM; IC50 (HLA-A*0206): 3700 nM
CC(C)C[C@H](NC(=O)[C@H](CC(C)C)NC(=O)[C@@H](N)CC(C)C)C(=O)N[C@@H](C)C(=O)N[C@@H](CCCNC(=N)N)C(=O)N[C@@H](C)C(=O)N[C@@H](C)C(=O)N[C@@H](CO)C(=O)N[C@H](C(=O)O)C(C)C [Peptide 60.0201],6.7,,,IC50 (HLA-A*6802; [3]): > 10000 nM; IC50 (HLA-A*0206; [2]): 95 nM
CC(C)C[C@H](NC(=O)[C@H](CC(C)C)NC(=O)CNC(=O)[C@H](CC(N)=O)NC(=O)[C@H](Cc1ccc(O)cc1)NC(=O)[C@@H](NC(=O)[C@H](CC(=O)O)NC(=O)[C@H](CC(C)C)NC(=O)[C@H](C)N)C(C)C)C(=O)O [Peptide 1177.02],,,,IC50 (HLA-A*0201): 73 nM; IC50 (HLA-A*0203): 256 nM; IC50 (HLA-A*6802; [3]): > 10000 nM
CSCC[C@H](N)C(=O)N[C@@H](CC(C)C)C(=O)N[C@@H](CC(C)C)C(=O)N[C@@H](CCCNC(=N)N)C(=O)N[C@@H](CC(C)C)C(=O)N[C@@H](CO)C(=O)N[C@@H](CCC(=O)O)C(=O)N1CCC[C@H]1C(=O)N[C@@H](C)C(=O)N[C@@H](CCC(=O)O)C(=O)N[C@H](C(=O)O)C(C)C [Peptide 1389.12],115,,,IC50 (HLA-A*0201): 294 nM; IC50 (HLA-A*6802; [3]): 4440 nM
CC(C)C[C@H](NC(=O)[C@H](CO)NC(=O)[C@@H](NC(=O)[C@H](CS)NC(=O)[C@H](CCC(N)=O)NC(=O)[C@H](CC(C)C)NC(=O)[C@@H](N)CO)C(C)C)C(=O)N[C@@H](Cc1c[nH]cn1)C(=O)N[C@H](C(=O)O)C(C)C [Peptide 1418.19],48,,,IC50 (HLA-A*0201): 56 nM; IC50 (HLA-A*0206; [2]): 4110 nM
CSCC[C@H](NC(=O)[C@@H](N)Cc1ccccc1)C(=O)N[C@@H](CC(C)C)C(=O)N[C@@H](CS)C(=O)N[C@@H](C)C(=O)NCC(=O)N[C@@H](CC(C)C)C(=O)N[C@@H](Cc1c[nH]c2ccccc12)C(=O)N[C@H](C(=O)O)C(C)C [Peptide 1418.22],91,,,IC50 (HLA-A*6802; [3]): > 10000 nM; IC50 (HLA-A*0206; [2]): 51 nM
CC[C@H](C)[C@H](N)C(=O)N[C@H](C(=O)N[C@@H](CC(C)C)C(=O)N[C@@H](CO)C(=O)N[C@H](C(=O)NCC(=O)N[C@@H](CS)C(=O)N[C@H](C(=O)NCC(=O)N[C@@H](C)C(=O)N[C@H](C(=O)O)C(C)C)[C@@H](C)O)C(C)C)[C@@H](C)O [Peptide 1418.59],40,,,IC50 (HLA-A*0201): 294 nM; IC50 (HLA-A*0206; [2]): 206 nM
CC(C)C[C@H](NC(=O)[C@H](C)N)C(=O)NCC(=O)N[C@H](C(=O)N[C@H](C(=O)N[C@@H](CS)C(=O)N[C@@H](Cc1ccc(O)cc1)C(=O)N[C@@H](C)C(=O)O)[C@@H](C)O)[C@@H](C)O [Peptide 1419.01],,1/2,,
CC(C)C[C@H](NC(=O)[C@H](CO)NC(=O)[C@H](CCCNC(=N)N)NC(=O)[C@@H]1CCCN1C(=O)[C@H](CCCNC(=N)N)NC(=O)[C@H](CC(C)C)NC(=O)[C@@H](N)Cc1ccccc1)C(=O)N[C@@H](CCC(N)=O)C(=O)N[C@@H](CS)C(=O)N[C@H](C(=O)O)C(C)C [Peptide 1419.07],,1/3,,
CC(C)C[C@H](NC(=O)[C@@H](N)C(C)C)C(=O)N[C@H](C(=O)N[C@@H](Cc1c[nH]cn1)C(=O)N1CCC[C@H]1C(=O)N[C@@H](CCC(N)=O)C(=O)N[C@@H](Cc1c[nH]c2ccccc12)C(=O)N[C@H](C(=O)N[C@@H](CC(C)C)C(=O)N[C@H](C(=O)N[C@H](C(=O)O)C(C)C)[C@@H](C)O)C(C)C)C(C)C [Peptide 1419.11],,2/2,2/2,
CSCC[C@H](NC(=O)[C@H](CC(C)C)NC(=O)[C@@H](N)CC(=O)O)C(=O)N[C@@H](CC(C)C)C(=O)N[C@@H](CC(C)C)C(=O)N[C@@H](CCCNC(=N)N)C(=O)N[C@@H](CC(C)C)C(=O)N[C@@H](CO)C(=O)N[C@@H](CCC(=O)O)C(=O)N1CCC[C@H]1C(=O)N[C@H](C(=O)O)C(C)C [Peptide 1419.13],,2/2,2/2,
CSCC[C@H](NC(=O)[C@H](CC(=O)O)NC(=O)[C@H](CC(N)=O)NC(=O)[C@H](CO)NC(=O)[C@H](CC(C)C)NC(=O)[C@H](CC(C)C)NC(=O)[C@H](Cc1c[nH]cn1)NC(=O)[C@H](CC(C)C)NC(=O)[C@@H](N)CO)C(=O)N[C@@H](CS)C(=O)N[C@@H](C)C(=O)O [Peptide 1419.14],,1/3,,
CC(C)C[C@H](NC(=O)[C@@H]1CCCN1)C(=O)N[C@H](C(=O)N[C@@H](CS)C(=O)N[C@@H](CC(N)=O)C(=O)NCC(=O)N[C@H](C(=O)N[C@@H](CC(C)C)C(=O)N[C@@H](CCC(N)=O)C(=O)NCC(=O)N[C@H](C(=O)O)C(C)C)C(C)C)C(C)C [Peptide 1419.17],,2/2,2/2,
CC(C)C[C@H](NC(=O)[C@H](CC(=O)O)NC(=O)[C@@H](NC(=O)[C@H](CS)NC(=O)[C@H](CCC(N)=O)NC(=O)[C@H](CC(C)C)NC(=O)[C@@H](N)CCCCN)C(C)C)C(=O)N[C@@H](Cc1c[nH]cn1)C(=O)N[C@H](C(=O)N[C@H](C(=O)O)C(C)C)C(C)C [Peptide 1419.24],,1/2,1/2,
CC[C@H](C)[C@H](NC(=O)[C@H](Cc1c[nH]c2ccccc12)NC(=O)[C@@H](NC(=O)[C@@H](NC(=O)[C@H](CO)NC(=O)[C@H](CC(C)C)NC(=O)[C@@H](NC(=O)[C@H](CC(C)C)NC(=O)[C@@H](N)Cc1ccccc1)[C@@H](C)O)C(C)C)[C@@H](C)O)C(=O)NCC(=O)N[C@H](C(=O)O)C(C)C [Peptide 1419.27],,3/3,3/3,
CC(C)C[C@H](NC(=O)[C@H](C)N)C(=O)N[C@@H](Cc1ccccc1)C(=O)N1CCC[C@H]1C(=O)N1CCC[C@H]1C(=O)N[C@@H](CCC(=O)O)C(=O)NCC(=O)N[C@H](C(=O)N[C@@H](CO)C(=O)N[C@H](C(=O)O)C(C)C)C(C)C [Peptide 1419.61],,1/3,1/3,
